Source: ChEMBL document CHEMBL1201862, “PubChem BioAssay data set” (2004)
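Step 1: Grow cells in 96-well plates. Step 2: Expose to compound for 48 hours at 5 concentrations. Step 3: Interpolate endpoints linearly; if unreached, use highest concentration. GI50 = concentration required for 50% inhibition of growth.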 Activity calls are given as the source filed them. No stated cut-off is given here; in the data, active = GI50 up to about 1.1 µM and inactive = higher.

Legend:
Experiment in all cases: NCI-60 cell line screen, 48 h
MDA-N = system: MDA-N
TK-10 = system: TK-10
MDA-MB-435 = system: MDA-MB-435
HCT-15 = system: HCT-15
SNB-75 = system: SNB-75
NCI-H226 = system: NCI-H226
HOP-92 = system: HOP-92
NCI-H23 = system: NCI-H23
NCI-H460 = system: NCI-H460
KM12 = system: KM12
786-0 = system: 786-0
UO-31 = system: UO-31
HT-29 = system: HT-29
NCI-H522 = system: NCI-H522
SF-295 = system: SF-295
SK-MEL-5 = system: SK-MEL-5
SNB-19 = system: SNB-19
CAKI-1 = system: CAKI-1
HL-60 = system: HL-60
COLO 205 = system: COLO 205

| Structure (SMILES) | GI50 (MDA-N) | GI50 (TK-10) | GI50 (MDA-MB-435) | GI50 (HCT-15) [µM] | GI50 (SNB-75) | GI50 (NCI-H226) | GI50 (HOP-92) | GI50 (NCI-H23) | GI50 (NCI-H460) | GI50 (KM12) | GI50 (786-0) | GI50 (UO-31) | GI50 (HT-29) | GI50 (NCI-H522) | GI50 (SF-295) | GI50 (SK-MEL-5) | GI50 (SNB-19) | GI50 (CAKI-1) | GI50 (HL-60) | GI50 (COLO 205) |
| --- | --- | --- | --- | --- | --- | --- | --- | --- | --- | --- | --- | --- | --- | --- | --- | --- | --- | --- | --- | --- |
| NC(=O)NNc1nc2ccccc2c(=O)n1NC(=O)C(=O)Nc1ccc(Cl)cc1Cl | > 100 µM (inactive) | > 100 µM (inactive) | > 100 µM (inactive) | > 100 | > 100 µM (inactive) | > 100 µM (inactive) | > 100 µM (inactive) | > 100 µM (inactive) | > 100 µM (inactive) | > 100 µM (inactive) | > 100 µM (inactive) | > 100 µM (inactive) | > 100 µM (inactive) | > 100 µM (inactive) | > 100 µM (inactive) | > 100 µM (inactive) | 81.1 µM (inactive) | > 100 µM (inactive) | – | – |
| COc1ccc(C(O)(c2ccccc2)c2nccc3ccccc23)cc1 (stereo unspecified) | 3.2 µM (inactive) | 27.8 µM (inactive) | 3.6 µM (inactive) | 4.58 | – | – | – | 16.6 µM (inactive) | 5.82 µM (inactive) | 5.71 µM (inactive) | 7.62 µM (inactive) | 21 µM (inactive) | 7.46 µM (inactive) | 6.35 µM (inactive) | 6.76 µM (inactive) | 3.38 µM (inactive) | 11.9 µM (inactive) | 8 µM (inactive) | 2.32 µM (inactive) | 4.47 µM (inactive) |
| CCN1/C(=C/C#C/C(C)=C\c2sc3ccc(Cl)cc3[n+]2CC)Sc2ccc(Cl)cc21 | 3.13 µM (inactive) | 4.28 µM (inactive) | 2.94 µM (inactive) | 4.61 | 2.61 µM (inactive) | 3.82 µM (inactive) | 1.58 µM (inactive) | – | 3.02 µM (inactive) | 3.1 µM (inactive) | 3.1 µM (inactive) | 3.85 µM (inactive) | 3.08 µM (inactive) | 1.56 µM (inactive) | 3.4 µM (inactive) | 2.09 µM (inactive) | 4.09 µM (inactive) | 2.82 µM (inactive) | – | 1.66 µM (inactive) |
| CC1CC(=O)N(N(C)C)C2(C#N)C(=O)N=C(N)C12C#N (stereo unspecified) | > 100 µM (inactive) | > 100 µM (inactive) | > 100 µM (inactive) | > 100 | > 100 µM (inactive) | – | > 100 µM (inactive) | > 100 µM (inactive) | – | > 100 µM (inactive) | > 100 µM (inactive) | > 100 µM (inactive) | > 100 µM (inactive) | 32.4 µM (inactive) | > 100 µM (inactive) | > 100 µM (inactive) | > 100 µM (inactive) | 23.4 µM (inactive) | 19.3 µM (inactive) | 38.7 µM (inactive) |
| Cc1nc(N)c(N2CCN(Cc3ccccc3)CC2)c(O)n1 | > 100 µM (inactive) | > 100 µM (inactive) | > 100 µM (inactive) | > 100 | – | > 100 µM (inactive) | – | > 100 µM (inactive) | > 100 µM (inactive) | > 100 µM (inactive) | > 100 µM (inactive) | > 100 µM (inactive) | > 100 µM (inactive) | > 100 µM (inactive) | > 100 µM (inactive) | – | > 100 µM (inactive) | – | > 100 µM (inactive) | > 100 µM (inactive) |
| Cn1c(-c2cccs2)cc(-c2ccsc2)c1-c1cccs1 | 55.3 µM (inactive) | > 100 µM (inactive) | 57.4 µM (inactive) | 88.9 | 62.1 µM (inactive) | > 100 µM (inactive) | > 100 µM (inactive) | 45.9 µM (inactive) | 48.1 µM (inactive) | > 100 µM (inactive) | > 100 µM (inactive) | > 100 µM (inactive) | 55.3 µM (inactive) | 72.8 µM (inactive) | > 100 µM (inactive) | > 10 µM (inactive) | > 100 µM (inactive) | > 100 µM (inactive) | – | 17.3 µM (inactive) |
| N#CC(Cc1ccccc1)N(CCC1=CCCCC1)C(c1ccccc1)c1ccccc1 (stereo unspecified) | 24.4 µM (inactive) | > 100 µM (inactive) | 41.1 µM (inactive) | 42.9 | > 100 µM (inactive) | – | 28.1 µM (inactive) | 60.1 µM (inactive) | 33.5 µM (inactive) | > 100 µM (inactive) | > 100 µM (inactive) | 50.6 µM (inactive) | 12.8 µM (inactive) | 15.2 µM (inactive) | > 100 µM (inactive) | 28 µM (inactive) | > 100 µM (inactive) | > 100 µM (inactive) | – | 35.2 µM (inactive) |
| O=C(O)CCC(=O)OC1N=C(c2ccccc2Cl)c2cc([N+](=O)[O-])ccc2NC1=O (stereo unspecified) | > 100 µM (inactive) | 86.7 µM (inactive) | > 100 µM (inactive) | 36.7 | 38.1 µM (inactive) | – | 69.2 µM (inactive) | > 100 µM (inactive) | > 100 µM (inactive) | 40.7 µM (inactive) | 42.1 µM (inactive) | 44.6 µM (inactive) | > 100 µM (inactive) | 55.1 µM (inactive) | > 100 µM (inactive) | – | > 100 µM (inactive) | > 100 µM (inactive) | 38.5 µM (inactive) | – |
| C[N+]1(C)CC=C(N2CCOCC2)CC1 | > 10 µM (inactive) | > 10 µM (inactive) | > 10 µM (inactive) | > 10 | > 10 µM (inactive) | > 10 µM (inactive) | – | > 10 µM (inactive) | > 10 µM (inactive) | > 10 µM (inactive) | > 10 µM (inactive) | > 10 µM (inactive) | > 10 µM (inactive) | > 10 µM (inactive) | > 10 µM (inactive) | > 10 µM (inactive) | > 10 µM (inactive) | > 10 µM (inactive) | > 10 µM (inactive) | > 10 µM (inactive) |
| Cc1cccc2cc3c(ccc4ccccc43)c[n+]12 | 37.9 µM (inactive) | > 100 µM (inactive) | 33.4 µM (inactive) | > 100 | 6.56 µM (inactive) | – | – | 7.6 µM (inactive) | 27.2 µM (inactive) | 2.75 µM (inactive) | 18 µM (inactive) | 30.1 µM (inactive) | 24.7 µM (inactive) | 9.25 µM (inactive) | 9.86 µM (inactive) | 5.65 µM (inactive) | 6.87 µM (inactive) | – | 48.4 µM (inactive) | 13.3 µM (inactive) |
| Cc1nc2ccc(NC3OCC(O)C(O)C3O)cc2c(=O)n1-c1ccccc1 (stereo unspecified) | > 100 µM (inactive) | > 100 µM (inactive) | > 100 µM (inactive) | > 100 | > 100 µM (inactive) | > 100 µM (inactive) | – | > 100 µM (inactive) | > 100 µM (inactive) | > 100 µM (inactive) | > 100 µM (inactive) | > 100 µM (inactive) | > 100 µM (inactive) | > 100 µM (inactive) | > 100 µM (inactive) | > 100 µM (inactive) | > 100 µM (inactive) | > 100 µM (inactive) | 49.7 µM (inactive) | > 100 µM (inactive) |
| CCOC(=O)/C=C/[C@H](O)[C@@H](O)/C=C/C(=O)OCC | 29.6 µM (inactive) | 55.8 µM (inactive) | 29.9 µM (inactive) | 23 | 62.7 µM (inactive) | > 100 µM (inactive) | 16.8 µM (inactive) | 33.8 µM (inactive) | 19.1 µM (inactive) | 18.9 µM (inactive) | 33.8 µM (inactive) | 61.8 µM (inactive) | 15.4 µM (inactive) | 20.7 µM (inactive) | 31.7 µM (inactive) | 22.6 µM (inactive) | 22 µM (inactive) | 23.1 µM (inactive) | – | 32.4 µM (inactive) |
| COc1ccc2[nH]c3c(C)c4ccnc(NCCCN(C)CCCNc5ccc6nnn7c8ccccc8c(=O)c5c67)c4c(C)c3c2c1 | 0.583 µM (active) | 1.07 µM (active) | 0.362 µM (active) | 0.114 | 1.01 µM (active) | > 10 µM (inactive) | – | 0.745 µM (active) | 0.0399 µM (active) | 0.432 µM (active) | 0.237 µM (active) | 0.603 µM (active) | 0.0266 µM (active) | 0.107 µM (active) | 0.14 µM (active) | – | 0.711 µM (active) | 1.03 µM (active) | 0.135 µM (active) | 0.367 µM (active) |
| Cn1ccnc1SC(F)(F)c1nc2ccccc2o1 | > 100 µM (inactive) | > 100 µM (inactive) | > 100 µM (inactive) | > 100 | 0.043 µM (active) | > 100 µM (inactive) | > 100 µM (inactive) | > 100 µM (inactive) | > 100 µM (inactive) | > 100 µM (inactive) | > 100 µM (inactive) | > 100 µM (inactive) | > 100 µM (inactive) | > 100 µM (inactive) | > 100 µM (inactive) | > 100 µM (inactive) | – | > 100 µM (inactive) | – | > 100 µM (inactive) |
| COc1ccc(-c2nc3ccccc3s2)cc1OC | 64.4 µM (inactive) | – | > 100 µM (inactive) | 43.7 | > 100 µM (inactive) | – | 6.59 µM (inactive) | 42.4 µM (inactive) | 20.1 µM (inactive) | 30.2 µM (inactive) | 44.6 µM (inactive) | 41.7 µM (inactive) | 31.6 µM (inactive) | – | 25.8 µM (inactive) | 10.5 µM (inactive) | 4.75 µM (inactive) | – | > 100 µM (inactive) | 21.9 µM (inactive) |
| Cc1ccc(C(=O)Nc2ccc(CP(=O)(O)O)cc2)cc1NC(=O)c1cccc(NC(=O)Nc2cccc(C(=O)Nc3cc(C(=O)Nc4ccc(CP(=O)(O)O)cc4)ccc3C)c2)c1 | > 100 µM (inactive) | > 100 µM (inactive) | > 100 µM (inactive) | > 100 | > 100 µM (inactive) | > 100 µM (inactive) | – | > 100 µM (inactive) | > 100 µM (inactive) | > 100 µM (inactive) | > 100 µM (inactive) | > 100 µM (inactive) | > 100 µM (inactive) | > 100 µM (inactive) | > 100 µM (inactive) | > 100 µM (inactive) | > 100 µM (inactive) | > 100 µM (inactive) | > 100 µM (inactive) | > 100 µM (inactive) |
